Measured values reported in patent US20250375544A1, “DUAL MODE RADIOTRACER AND -THERAPEUTICS” (TECHNISCHE UNIVERSITÄT MÜNCHEN, priority 2021, published 2025).

Columns and labels:
[1] = system: LNCaP tumor xenograft-bearing CB17-SCID mice; assay: Biodistribution in LNCaP tumor xenograft-bearing CB17-SCID mice
LNCaP cells = assay type: cell-based, human; settings: 1 h, 37° C., 1.0 nM ^177Lu-compound, normalized to ([^125I]I-BA)KuE
[2] = system: LNCaP tumor xenograft-bearing CB17-SCID mouse; assay: Metabolite analysis 1 h p.i. (radio-RP-HPLC of organ and body fluid extracts); assay type: in vivo, mice
Experimental: […] (9.64 MBq) was injected into the tail vein of a LNCaP tumor xenograft-bearing CB17-SCID mouse. The animal was sacrificed 1 h p.i. and subjected to the standard procedure for biodistribution studies. In addition, urine was taken from all mice that were investigated in this experiment (8.4-9.0 MBq) and pooled (n=5). Relevant dissected organs (tumor, kidneys, liver) and body fluids (blood and urine) were collected, homogenized if necessary and subjected to mechanochemical as well as solid phase extraction (SPE).
Four 2 mL LoBind tubes were equipped with steel and ceramic beads from Lysis Tubes W (analytikjena, Jena, Germany) for kidneys, tumor and liver (bisected). 1 mL radioimmunoprecipitation assay (RIPA) buffer containing 2.0 μmol of 2-PMPA was added to each tube and the organs were homogenized with a MM-400 ball mill (Retsch GmbH, Haan, Germany) at 30 Hz for 20 min. Afterwards, the homogenates were transferred to LoBind tubes free from steel and ceramic beads and centrifuged (15,200 rpm, 10 min, 21° C.). The first supernatants were stored, and the precipitates were again subjected to mechanochemical extraction with 1 mL RIPA buffer (2.0 μmol PMPA) at 30 Hz for 20 min. After centrifugation (15,200 rpm, 10 min, 21° C.), also the second supernatants were kept for SPE.
After cardiac puncture, 1 mL Tracepur®-H2O was directly added to the collected blood sample and centrifuged twice (13,000 rpm, 5 min) to separate the plasma from the blood cells. The precipitate was dissolved in 500 μL Tracepur®-H2O and together with the first supernatant again centrifuged (13,000 rpm, 5 min). Both supernatants were kept for SPE.
Pooled urine samples were centrifuged (13,000 rpm, 5 min) and the supernatant was directly analyzed via radio-RP-HPLC.
For solid phase extraction, the supernatants were loaded onto Strata-X cartridges (200 mg), which were preconditioned with 5 mL MeOH and 5 mL H2O (eight cartridges in total, for all organ and blood supernatants). The cartridges were washed with 1 mL Tracepur®-H2O and dried prior to elution. For each cartridge, 750 μL of MeCN/H2O (6/4, 0.1% TFA) were used for elution and the extracts were analyzed via radio-RP-HPLC.
Besides biodistribution and μSPECT/CT studies, [^177Lu]Lu-11 (tetrazole) was analyzed according to its metabolic stability 1 h p.i. Relevant dissected organs (tumor, kidney, liver) and body fluids (blood and urine) were collected, homogenized if necessary and subjected to extraction of the incorporated activity. […] The respective radio-RP-HPLC analyses of extracts from homogenized organs and body fluids are depicted in FIG. 10.

## CC(C)(C)[Si](F)(c1ccc(C(=O)NCC(NC(=O)CN2CCN(CC(=O)[O-])CCN(CC(=O)[O-])CCN(CC(=O)[O-])CC2)C(=O)NC(CCCCNC(=O)CCC(=O)NCCCC(NC(=O)CCC(NC(=O)NC(CCc2nnn[nH]2)C(=O)O)C(=O)O)C(=O)O)C(=O)O)cc1)C(C)(C)C.[177Lu+3] (stereo not drawn) [[^177Lu]Lu-11, [^177Lu]Lu-Tetrazole Derivative 11]
[1]; 1 h p.i.
  Biodistribution Adrenals: 0.61 ± 0.42 % ID/g
  Biodistribution Blood: 1.09 ± 0.30 % ID/g
  Biodistribution Bone: 0.47 ± 0.44 % ID/g
  Biodistribution Heart: 0.41 ± 0.04 % ID/g
  Biodistribution Intestine: 0.67 ± 0.21 % ID/g
  Biodistribution Kidneys: 33.2±3.8 % ID/g
  Biodistribution Liver: 0.74 ± 0.17 % ID/g
  Biodistribution Lung: 1.23 ± 0.27 % ID/g
  Biodistribution Muscle: 0.15 ± 0.03 % ID/g
  Biodistribution Pancreas: 0.33 ± 0.11 % ID/g
  Biodistribution Parotid gland: 0.56 ± 0.08 % ID/g
  Biodistribution Spleen: 1.04 ± 0.15 % ID/g
  Biodistribution Stomach: 1.55 ± 1.67 % ID/g
  Biodistribution Submandibular gland: 0.40 ± 0.05 % ID/g
  Biodistribution Tumor: 3.40±0.63 % ID/g
  Ratio Tumor-to-blood: 3.46 ± 1.62
  Ratio Tumor-to-kidney: 0.10 ± 0.03
  Ratio Tumor-to-liver: 5.00 ± 2.11
  Ratio Tumor-to-muscle: 24.9 ± 10.2
  Ratio Tumor-to-parotid gland: 6.20 ± 1.74
  Ratio Tumor-to-submandibular gland: 8.74 ± 2.52
[1]; 1 h p.i. vs 24 h p.i.
  tumor-to-submandibularis and -parotidea ratios at 1 h p.i. compared to respective values at 24 h p.i.: two-fold lower
[1]; 24 h p.i.
  Biodistribution Adrenals: 0.17 ± 0.19 % ID/g
  Biodistribution Blood: 0.00 ± 0.00 % ID/g
  Biodistribution Bone: 0.18 ± 0.04 % ID/g
  Biodistribution Heart: 0.02 ± 0.00 % ID/g
  Biodistribution Intestine: 0.52 ± 0.68 % ID/g
  Biodistribution Kidneys: 3.23 ± 0.77 % ID/g
  Biodistribution Liver: 0.18 ± 0.04 % ID/g
  Biodistribution Lung: 0.05 ± 0.02 % ID/g
  Biodistribution Muscle: 0.02 ± 0.01 % ID/g
  Biodistribution Pancreas: 0.02 ± 0.00 % ID/g
  Biodistribution Parotid gland: 0.06 ± 0.02 % ID/g
  Biodistribution Spleen: 0.11 ± 0.03 % ID/g
  Biodistribution Stomach: 0.12 ± 0.11 % ID/g
  Biodistribution Submandibular gland: 0.04 ± 0.01 % ID/g
  Biodistribution Tumor: 0.68 ± 0.16 % ID/g
  Ratio Tumor-to-blood: 227 ± 50
  Ratio Tumor-to-kidney: 0.22 ± 0.06
  Ratio Tumor-to-liver: 3.74 ± 0.50
  Ratio Tumor-to-muscle: 55.9 ± 24.3
  Ratio Tumor-to-parotid gland: 12.2 ± 1.7
  Ratio Tumor-to-submandibular gland: 16.9 ± 2.2
[1]; 24 h p.i., in comparison to [^177Lu]Lu-PSMA-10
  factor by which tumor-to-submandibular gland and tumor-to-parotid gland ratios declined: 8
LNCaP cells
  % Internalization compared to the reference: 9.9±3.2%
[2]; blood
  metabolite with higher hydrophilicity, amount: 8.5%
[2]; kidney
  metabolite with higher hydrophilicity, amount: 11.7%
[2]; liver homogenate
  metabolite with higher hydrophilicity: not detectable
  more lipophilic metabolite (tR=20.5 min), amount: 28.0%
[2]; tumor
  metabolite with higher hydrophilicity, amount: 7.1%
[2]; urine
  metabolite with higher hydrophilicity, amount: 18.7%
